Here are results for one compound from publication PMC7540184 (Journal of natural products, 2020).

What all share (format): cell-based, human
One assay deals with BT-549 cells. The experiment in a line: Intracellular Ca2+ imaging. The following applies: BT-549, 150 nM and 500 nM, after 3 h, sustained at 6 h.
For a further assay, the system named is MDA-MB-231 cells. Put plainly: Intracellular Ca2+ imaging. The following applies: MDA-MB-231, 150 nM.
Assay [1] deals with BT-549 cells with NCX1 knockout. Put plainly: Sensitivity of BT-549 cells after CRISPR knockout of NCX1. The following applies: inducible Cas9, three sgRNAs targeted to NCX1.

Consider `C[C@@H]1C[C@H](O)[C@]2(O)O[C@@H]3C[C@@]4(C=O)[C@@H](CC[C@@H]5[C@@H]4CC[C@]4(C)[C@@H](C6=CC(=O)OC6)CC[C@]54O)C[C@H]3O[C@@H]2O1` [calotropin (9), Calotropin], for which the “mean intracellular Ca2+ fluorescence compared to vehicle-treated cells” value in the assay on BT-549 cells is on record as “significantly increased”. Further, in the assay on MDA-MB-231 cells, the “change in Ca2+ fluorescence relative to BT-549 cells” value is reported as “significantly less”. The “effect of removing NCX1 on sensitivity of BT-549 cells” value in assay [1] was “did not reduce the sensitivity”.
